Test results from patent publication US20050267182A1, “Urea derivatives as FLT-3 modulators” (Ambit Biosciences Corporation, priority 2003, published 2005).

Assays:
FLT3 = molecular target: T1, FLT3 (Homo sapiens, UniProt P36888); assay: Binding constant (Kd) measurement, phage-displayed kinase competition binding assay; settings: for Binding Assay: FLT3(DKIN) / Kd: FLT3(DKIN) construct
T1 construct: FLT3(DKIN); made in house
T1 sequence (P36888 610-943 limits assumed): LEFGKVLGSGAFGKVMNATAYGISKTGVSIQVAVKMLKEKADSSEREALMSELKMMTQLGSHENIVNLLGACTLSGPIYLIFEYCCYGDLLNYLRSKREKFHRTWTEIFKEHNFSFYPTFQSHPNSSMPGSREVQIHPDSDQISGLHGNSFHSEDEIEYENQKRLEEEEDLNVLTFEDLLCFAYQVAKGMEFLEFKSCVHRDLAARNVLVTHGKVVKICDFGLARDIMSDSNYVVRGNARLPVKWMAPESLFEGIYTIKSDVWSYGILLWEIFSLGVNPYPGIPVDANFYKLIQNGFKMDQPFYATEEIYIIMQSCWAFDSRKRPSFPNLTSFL
From the text: Binding Constant (Kd) Measurements for Small-Molecule-Kinase Interactions
The term “ND” represents non-determined values.

MV4,11 cells = assay: FLT3 assay using MV4,11 cells (cellular proliferation, MTS); format: cell-based, human; settings: cell assay code CS0001
Experimental: The ability of FLT3 kinase inhibitors to inhibit cellular proliferation was also examined. MV4:11 was a cell line derived from a patient with acute myelogenous leukemia.
FLT3 Assay Using MV4,11 Cells
MV4,11 cells were grown in an incubator @ 37° C. in 5% CO2 in Medium 2 (RPMI, 10% FBS, 4 mM glutamine, Penn/Strep). The cells were counted daily and the cell density was kept between 1e5 and 8e5 cells/ml.
Day One: Enough cells were harvested for experiments to be conducted in 50 ml conical tubes. The harvested cells were spun at 500 g for 5 min at 4° C., the supernatant was then aspirated and the cells were resuspended in the starting volume of 1×PBS. The cells were again spun at 500 g for 5 min at 4° C. and the supernatant again aspirated. The cells were then resuspended in medium 3 (DMEM w/ glut, 10% FBS, Penn/Strep) to a density of 4e5 cells/ml and incubated (37° C. in 5% CO2 O/N.
Day Two: The cells were counted and enough medium 3 was added to decrease density to 2e5 cells/ml. 50 ul (10,000 cells) was aliquoted into each well of a 96 well optical plate using multichannel pipetman. The compound plate was then set up by aliquoting 3 μl of negative control (DMSO) into column 1 of a 96 well 300 ul polypropylene plate, aliquoting 3 μt of positive control (10 mM AB20121) into column 12 of plate, and aliquoting 3 μl of appropriate compounds from serial dilutions into columns 2-11. To each well, 150 μl of Medium 3 was added and 50 μl of compound/medium mixture from compound plate into rows of optical plate in duplicate. The cells were then incubated @ 37° C. in 5% CO2 for 3 days.
Day Five: MTS was thawed in a H2O bath. 20 μl of MTS was added to each well of optical plate and the cells were incubated (37° C. in 5% CO2 for 2 hours. The plate was then placed on a plate shaker for 30 seconds on high speed.

SMILES	Binding Assay: FLT3(DKIN) (FLT3)	Cell Assay: CS0001:IC50 (MV4,11 cells)	other results
CC(=O)c1ccc(NC(=O)Nc2cc(C(C)(C)C)on2)cc1 [Compound A20]	+ + +	+ + +	–
CC(C)(C)c1cc(NC(=O)Nc2ccncc2)no1 [Compound A53]	+ +	+ +	–
COc1ccc(NC(=O)Nc2cc(C(C)(C)C)on2)cc1OC [Compound A55]	–	–	Binding Assay: FLT3(JMminus) (FLT3; FLT3(JMminus) construct): + +; IC50 (MV4,11 cells; Homo sapiens, MV4-11): > 10 µM
CC(C)(C)c1cc(NC(=O)Nc2ccc(OCc3ccc(OC(F)(F)F)cc3)cc2)no1 [Compound G5]	+ + + +	+ + +	–
COC(=O)c1cccc(COc2ccc(NC(=O)Nc3cc(C(C)(C)C)on3)cc2)c1 [Compound G7]	+ + + +	+ + +	–
CC(C)(C)c1cc(NC(=O)Nc2ccc(OCc3ccc(C(=O)c4ccccc4)cc3)cc2)no1 [Compound G9]	+ + + +	+ + +	–
COc1cccc(COc2ccc(NC(=O)Nc3cc(C(C)(C)C)on3)cc2)c1 [Compound G13]	+ + + +	+ + + +	–
CC(C)(C)c1cc(NC(=O)Nc2ccc(OCc3ccc(F)cc3Cl)cc2)no1 [Compound G18]	+ + + +	+ + +	–
CCOc1ccc(NC(=O)Nc2cc(C(C)(C)C)on2)cc1 [Compound G20]	+ + + +	+ + + +	–
CC(C)(C)c1cc(NC(=O)Nc2ccc(OCc3c(F)cccc3F)cc2)no1 [Compound G21]	+ + + +	+ + + +	–
CC(C)Oc1ccc(NC(=O)Nc2cc(C(C)(C)C)no2)cc1 [Compound G33]	+ + + +	+ + +	–
Cc1ccc(-n2nc(C(C)(C)C)cc2NC(=O)Nc2ccc(OCCN3CCOC(CO)C3)c3ccccc23)cc1 (stereo not drawn) [Compound G38]	+ + + +	+ + +	–
CC1CN(CCOc2ccc(NC(=O)Nc3cc(C(C)(C)C)on3)cc2)CC(C)O1 (stereo not drawn) [Compound G42]	+ + +	+ +	–
CC1CN(CCOc2ccc(NC(=O)Nc3cc(C(C)(C)C)on3)cc2)CCN1 (stereo not drawn) [Compound G46]	+ +	+ +	–
CC(C)(C)c1cc(NC(=O)Nc2ccc(OCCN3CCC(O)CC3)cc2)no1 [Compound G48]	+ + +	+ +	–
CC(C)(C)c1cc(NC(=O)Nc2ccc(OCCN3CCSCC3)cc2)no1 [Compound G53]	+ + +	+ +	–
CC(C)(C)c1cc(NC(=O)Nc2ccc(OCc3ccc4nonc4c3)cc2)no1 [Compound G55]	+ + + +	+ + +	–
Cn1nc(C(C)(C)C)cc1NC(=O)Nc1ccc(OCc2ccccc2)cc1 [Compound H2]	+ + + +	+ + + +	–
CC(C)(C)c1cc(NC(=O)Nc2ccc(NC(=O)c3cccnc3)cc2)co1 [Compound N1]	+ + + +	+ + +	–
CC(C)(C)c1cc(NC(=O)Nc2ccc(NC(=O)c3ncccc3C(N)=O)cc2)no1 [Compound N6]	+ + +	+ +	–
CC(C)(C)c1cc(NC(=O)Nc2ccc(NC(=O)c3c(Cl)cccc3Cl)cc2)no1 [Compound N94]	+ + + +	–	–
CC(C)(C)c1cc(NC(=O)Nc2ccc(NC(=O)c3c(F)cccc3C(F)(F)F)cc2)no1 [Compound N95]	+ + +	–	–
CCN(CC)CCNC(=O)c1ccc(NC(=O)Nc2cc(C(C)(C)C)on2)cc1 [Compound N102]	–	–	Kd (FLT3): > 10 µM
Cc1ccc(S(=O)(=O)Nc2ccc(NC(=O)Nc3cc(C(C)(C)C)on3)cc2)cc1 [Compound V2]	+ +	–	–
CC(C)(C)c1cc(NC(=O)Nc2ccc(S(=O)(=O)Nc3ncccn3)cc2)no1 [Compound V3]	–	–	Kd (FLT3): > 10 µM
CC(=O)NS(=O)(=O)c1ccc(NC(=O)Nc2cc(C(C)(C)C)on2)cc1 [Compound V4]	–	–	Kd (FLT3): > 10 µM
O=C(Nc1ccc(Br)cc1)Nc1cc(C(F)(F)F)cc(Cl)n1 [Compound Z72]	+ + +	–	–
O=C(Nc1ccc(Cl)cc1)Nc1cc(C(F)(F)F)cc(Cl)n1 [Compound Z76]	+ + +	–	–

More lines, main results first:

Binding Assay: FLT3(DKIN) (FLT3)	Cell Assay: CS0001:IC50 (MV4,11 cells)	SMILES	other results
+ + + +	+ + +	O=C(c1cc2ccccc2[nH]1)c1cc2cc(O)ccc2[nH]1	–
+ + +	+ +	CC(C)(C)c1cc(NC(=O)Nc2ccc(OCc3ccccc3C(F)(F)F)cc2)no1 [Compound G4]	–
+ + + +	+ + +	CC(C)(C)c1cc(NC(=O)Nc2ccc(OCc3ccc(C(F)(F)F)cc3)cc2)no1 [Compound G6]	–
+ + +	+ +	CC(C)(C)c1cc(NC(=O)Nc2ccc(OCc3ccccc3-c3ccccc3)cc2)no1 [Compound G8]	–
+ + + +	+ + + +	Cc1ccc(COc2ccc(NC(=O)Nc3cc(C(C)(C)C)on3)cc2)cc1 [Compound G15]	–
+ + + +	+ + +	CC(C)(C)c1cc(NC(=O)Nc2ccc(OCCc3ccc(F)cc3)cc2)no1 [Compound G24]	–
+ + + +	+ + +	CC(C)(C)c1cc(NC(=O)Nc2ccc(OCCc3ccccn3)cc2)no1 [Compound G27]	–
+ + + +	+ + + +	C=CCOc1ccc(NC(=O)Nc2cc(C(C)(C)C)no2)cc1 [Compound G32]	–
+ + +	+ +	CC(C)(C)c1cc(NC(=O)Nc2ccc(OCCN3CCOCC3)cc2)no1 [Compound G40]	–
+ +	+ +	CC1CCCN(CCOc2ccc(NC(=O)Nc3cc(C(C)(C)C)on3)cc2)C1 (stereo not drawn) [Compound G44]	–
+ +	+ + +	CC(C)(C)c1csc(NC(=O)Nc2ccc(OCc3ccccc3)cc2)n1 [Compound G49]	–
+ + + +	+ + +	Cc1nccn1CCOc1ccc(NC(=O)Nc2cc(C(C)(C)C)on2)cc1 [Compound G51]	–
+ +	+ +	Cn1nc(-c2ccccc2)c(C(=O)Nc2ccc(NC(=O)Nc3cc(C(C)(C)C)on3)cc2)c1Cl [Compound N11]	–
+ + + +	+ + +	COC(=O)c1ccc(C(=O)Nc2ccc(NC(=O)Nc3cc(C(C)(C)C)on3)cc2)nc1 [Compound N12]	–
+ + +	–	CC(C)(C)c1cc(NC(=O)Nc2ccc(C(=O)NCc3ccc4c(c3)OCO4)cc2)no1 [Compound N97]	–
+ + +	–	CC(C)(C)c1cc(NC(=O)Nc2ccc(NC(=O)Cc3ccc(OCc4ccccc4)cc3)cc2)no1 [Compound N98]	–
+ + + +	–	Cc1ccc(CNc2ccc(NC(=O)Nc3cc(C(C)(C)C)on3)cc2)cc1 [Compound O9]	–
+ + +	–	CC(C)(C)c1cc(NC(=O)Nc2ccc(-c3nc(-c4ccc(C(F)(F)F)cc4)no3)cc2)no1 [Compound P8]	–
+ +	–	CC(C)(C)c1cc(NC(=O)Nc2ccc(NS(=O)(=O)c3ccccc3)cc2)no1 [Compound V1]	–
+ + + +	–	Cc1ccc(NC(=O)Nc2cc(C(F)(F)F)cc(Cl)n2)cc1 [Compound W1]	–
+ + +	–	Cn1nc(C(C)(C)C)cc1NC(=O)Nc1ccc(F)cc1 [Compound Z19]	–
+ +	–	Cc1c(NC(=O)Nc2cc(C(C)(C)C)on2)c(=O)n(-c2ccccc2)n1C [Compound Z45]	–
+ + +	–	O=C(Nc1ccc(Cl)cc1)Nc1ccc(-n2nc(Br)c(Br)c2Br)cc1 [Compound Z49]	–
+ + +	–	CC(C)(C)c1cc(NC(=O)NN2CCCCC2)no1 [Compound Z57]	–
+ + +	–	O=C(Nc1cccc(Cl)c1)Nc1cc(C(F)(F)F)cc(Cl)n1 [Compound Z74]	–
